# Counter-ions that a name gives are not always drawn. Like-named read-outs stand apart in the source and are kept apart here.
# Assays:
# [1] = target: T1, human plasma BChE (Homo sapiens, UniProt P06276); test: Ex vivo enzyme-inhibition kinetic analysis (Ki and inhibition mode); format: biochemical; conditions: for Inhibition mode (BChE): best-fit nonlinear regression model
# T1 construct: pooled human plasma (source of BChE) were used as enzyme sources; from tissue; host or cells: pooled human plasma from patients with mild-to-moderate AD
# Description: (§1) The stock solution was prepared at 10 mM in DMSO. Acetylthiocholine iodide (ATC), butyrylthiocholine iodide (BTC), and 5,5′-dithiobis-(2-nitrobenzoic acid) (DTNB) were also purchased from Sigma-Aldrich. Recombinant human AChE (Cat. No. C1682) and pooled human plasma (source of BChE) were used as enzyme sources. The pooled human plasma was prepared as described before ([Vijayaraghavan et al., 2013]). Briefly, pooled plasma samples were prepared by combining equal volumes from a large cohort of patients clinically diagnosed with mild-to-moderate AD. All samples were collected prior to the initiation of any cholinesterase inhibitor treatment. An equal volume of glycerol was then added to the pooled plasma, thoroughly mixed, and aliquoted into small tubes. These aliquots were stored at -20 °C until used in the assay. Each aliquot was used only once to avoid any interference due to freeze-thaw cycles. All other reagents were of analytical grade.
# (§2) Substrate concentrations were varied in a two-fold serial dilution: BTC (5 mM–[…]) for BChE and ATC (0.5 mM–[…]) for AChE. Each well received 20 µL of compound or vehicle, 20 µL of substrate, 20 µL of enzyme/DTNB master mix (for all of them 4x working solution in order to reach final concentration), and 20 µL of buffer. Absorbance at 412 nm was measured every 2 min for 15–20 min.
# To further elucidate the mechanism of inhibition, inhibition constant (Kᵢ) values and inhibition modes were determined using nonlinear regression models in GraphPad Prism 10. Multiple models were tested, including competitive, noncompetitive, uncompetitive, and mixed inhibition. The optimal model for each compound was selected based on residual analysis and the Akaike Information Criterion (AIC), ensuring robust statistical support. In cases of mixed inhibition, the α parameter was used to characterize the relative affinity of the inhibitor for the enzyme-substrate complex versus the free enzyme.
# [2] = target: T2, human BChE (Homo sapiens, UniProt P06276); test: IC50 determination against BChE in pooled human plasma (Ellman); format: biochemical
# T2 construct: pooled human plasma (source of BChE) were used as enzyme sources; from tissue; host or cells: pooled human plasma from patients with mild-to-moderate AD
# Description: as §1, §2
# [3] = target: T3, Recombinant human AChE (Homo sapiens, UniProt P22303); test: Single-concentration screening, modified Ellman's assay (AChE); format: biochemical; conditions: 0.5 mM ATC
# T3 construct: purchased Sigma-Aldrich C1682
# Description: as §1, with “Propranolol hydrochloride and diltiazem hydrochloride were obtained from Sigma-Aldrich (St. Louis, MO, United States). The stock” for “The stock”
# Cholinesterase activity was measured using a modified Ellman’s colorimetric method adapted for high-throughput screening ([Kumar et al., 2017]; [2020]; [Darreh-Shori et al., 2024]). Assays were conducted in 384-well microplates. Briefly, 20 µL of buffer was initially added to all wells. Subsequently, 20 µL of enzyme solution was added to designated wells, while 20 µL of buffer without enzyme was added to the negative control wells. […] The plate reader (Tecan Infinite M1000) was configured for a 384-well transparent plate in absorbance mode at 412 nm, with kinetic reading taken over 10 min at 1-min intervals. Following incubation, 20 µL of Master Mix Buffer (MMB) cocktail was added to each well using a multichannel pipette, and the plate reading was initiated inmediately. […] Upon completion of the reading, the data file was saved, enzyme activity rates were extracted, and the data were analyzed. Enzyme activity was calculated from the slope of the linear portion of the absorbance-time curve.
# [4] = target: T4, plasma-derived BChE (Homo sapiens, UniProt P06276); test: Single-concentration screening, modified Ellman's assay (BChE); format: biochemical; conditions: read-out: BChE inhibition relative to vehicle control
# T4 construct: pooled human plasma (source of BChE) were used as enzyme sources; from tissue; host or cells: pooled human plasma from patients with mild-to-moderate AD
# Description: Propranolol hydrochloride and diltiazem hydrochloride were obtained from Sigma-Aldrich (St. Louis, MO, United States). The stock solution was prepared at 10 mM in DMSO. Acetylthiocholine iodide (ATC), butyrylthiocholine iodide (BTC), and 5,5′-dithiobis-(2-nitrobenzoic acid) (DTNB) were also purchased from Sigma-Aldrich. Recombinant human AChE (Cat. No. C1682) and pooled human plasma (source of BChE) were used as enzyme sources. The pooled human plasma was prepared as described before ([Vijayaraghavan et al., 2013]). Briefly, pooled plasma samples were prepared by combining equal volumes from a large cohort of patients clinically diagnosed with mild-to-moderate AD. […]
# Cholinesterase activity was measured using a modified Ellman’s colorimetric method adapted for high-throughput screening ([Kumar et al., 2017]; [2020]; [Darreh-Shori et al., 2024]). […] The plate reader (Tecan Infinite M1000) was configured for a 384-well transparent plate in absorbance mode at 412 nm, with kinetic reading taken over 10 min at 1-min intervals. Following incubation, 20 µL of Master Mix Buffer (MMB) cocktail was added to each well using a multichannel pipette, and the plate reading was initiated inmediately. […] Upon completion of the reading, the data file was saved, enzyme activity rates were extracted, and the data were analyzed. […]
# [5] = system: BChE; conditions: at approximately 0.59 µM in plasma and 10 µM in brain tissue; ref Cruickshank and Neil-Dwyer, 1985; cited from earlier work
# [6] = physiologically relevant concentration; ref Cruickshank and Neil-Dwyer, 1985; cited from earlier work
# T2 sequence (P06276 29-602): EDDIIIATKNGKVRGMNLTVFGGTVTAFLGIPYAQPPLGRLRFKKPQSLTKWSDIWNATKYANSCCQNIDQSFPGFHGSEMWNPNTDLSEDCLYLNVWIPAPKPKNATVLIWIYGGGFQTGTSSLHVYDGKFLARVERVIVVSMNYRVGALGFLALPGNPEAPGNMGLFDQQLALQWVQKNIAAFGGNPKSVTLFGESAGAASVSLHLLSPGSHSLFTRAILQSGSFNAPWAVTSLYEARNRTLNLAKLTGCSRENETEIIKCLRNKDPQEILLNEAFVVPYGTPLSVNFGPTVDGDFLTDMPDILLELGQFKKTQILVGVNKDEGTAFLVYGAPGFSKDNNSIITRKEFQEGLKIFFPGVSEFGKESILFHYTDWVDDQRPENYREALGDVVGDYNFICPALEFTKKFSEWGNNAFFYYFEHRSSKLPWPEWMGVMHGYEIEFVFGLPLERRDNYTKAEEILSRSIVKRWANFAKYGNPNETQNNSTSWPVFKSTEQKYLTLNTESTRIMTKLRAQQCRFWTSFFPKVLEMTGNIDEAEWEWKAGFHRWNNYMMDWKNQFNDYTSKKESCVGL
# T1 sequence (P06276 29-602): as above
# T3 sequence (P22303 32-614): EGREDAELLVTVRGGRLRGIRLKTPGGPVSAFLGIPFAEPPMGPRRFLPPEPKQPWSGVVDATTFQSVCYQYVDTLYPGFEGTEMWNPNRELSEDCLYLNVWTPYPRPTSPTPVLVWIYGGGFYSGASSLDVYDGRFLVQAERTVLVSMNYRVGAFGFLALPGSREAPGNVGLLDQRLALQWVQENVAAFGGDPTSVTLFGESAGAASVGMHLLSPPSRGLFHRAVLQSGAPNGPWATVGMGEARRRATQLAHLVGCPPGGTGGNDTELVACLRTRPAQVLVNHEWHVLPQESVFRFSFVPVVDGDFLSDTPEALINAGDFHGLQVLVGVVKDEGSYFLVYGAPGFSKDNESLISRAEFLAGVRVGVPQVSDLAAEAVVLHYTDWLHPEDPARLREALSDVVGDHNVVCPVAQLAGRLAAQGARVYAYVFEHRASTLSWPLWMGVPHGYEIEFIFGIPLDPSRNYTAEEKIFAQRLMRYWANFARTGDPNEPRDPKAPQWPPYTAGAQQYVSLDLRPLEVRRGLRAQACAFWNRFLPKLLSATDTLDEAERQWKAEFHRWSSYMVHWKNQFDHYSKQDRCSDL
# T4 sequence (P06276 29-602): as the sequence (P06276 29-602) above
smiles,measurement,setting,value
"COc1ccc([C@@H]2Sc3ccccc3N(CCN(C)C)C(=O)[C@@H]2OC(C)=O)cc1 [Diltiazem, diltiazem hydrochloride]",Ki,[1],2300 nM
same,Inhibition mode (BChE),[1],competitive inhibitor
same,Inhibition mode (BChE),[1]; listed as diltiazem,competitive inhibition
same,IC50,[2],153000 nM
same,inhibition at 100 µM,"[3]; single concentration 100 µM, read-out: AChE inhibition relative to vehicle control",2%
same,inhibition at 100 µM,"[4]; single concentration 100 µM, 5 mM BTC",> 80%
CCN(CC)C(C)CN1c2ccccc2Sc2ccccc21 (stereo not shown) [Ethopropazine],Inhibition mode (BChE),[1],Mixed-competitive
same,Inhibition mode (BChE),[1]; listed as ethopropazine,mixed competitor
same,IC50,[2],2810 nM
same,AChE inhibition relative to vehicle control,[3]; single concentration 100 µM,no inhibition
CNC(=O)Oc1ccc2c(c1)[C@]1(C)CCN(C)[C@@H]1N2C [Physostigmine],Inhibition mode (BChE),[1],Competitive
same,Inhibition mode (BChE),[1]; listed as physostigmine,competitive inhibition
"CC(C)NCC(O)COc1cccc2ccccc12 (stereo not shown) [Propranolol, Propranolol hydrochloride]",Reduction of BChE activity,[5],approximately 50%
same,Ki,[1],190 nM
same,Inhibition mode (BChE),[1],competitive inhibitor
same,Inhibition mode (BChE),[1]; listed as propranolol,competitive inhibition
same,Concentration that reduced BChE activity to half of its baseline level,[1]; substrate concentration range of 0.08 mM–0.62 mM,0.19 µM
same,Concentration in plasma,[6],approximately 0.59 µM
same,Concentration in the brain tissue,[6],~10 µM
same,IC50,"[2]; 5 mM BTC as substrate, plasma BChE, read-out: IC50 (BChE)",55600 nM
same,inhibition at 100 µM,"[3]; read-out: AChE inhibition relative to vehicle control, single concentration 100 µM",18%
same,inhibition at 100 µM,[4],> 80%

# Reference: PMC12657457 (Frontiers in Pharmacology, 2025)
